Data set [1] deals with Mitogen-activated protein kinase kinase kinase 9 (Homo sapiens) (UniProt P80192). To be noted: Compound concentration 1000.0 nM.
The target in data set [2] is SRSF protein kinase 2 (Homo sapiens) (UniProt P78362). To be noted: Compound concentration 1000.0 nM.
Data set [3] deals with Cannabinoid receptor 1 (Homo sapiens) (UniProt P21554). Kind of data set: CB1 (h) CEREP ligand profiling. To be noted: Compound concentration 10.0 uM.
The target of data set [4] is 5-hydroxytryptamine receptor 6 (Homo sapiens) (UniProt P50406). Kind of data set: 5-HT6 (h) CEREP ligand profiling. To be noted: Compound concentration 10.0 uM.
In data set [5] the target is Na+ channel (sodium channel alpha subunit family) (Homo sapiens, UniProt P35498+P35499+Q01118+Q14524+Q15858+Q99250+Q9NY46+Q9UI33+Q9UQD0+Q9Y5Y9). Briefly: Na+ channel CEREP ligand profiling. It counts as protein assay. To be noted: probe veratridine (ligand); compound concentration 10 uM.
In data set [6] the target is Dual specificity protein kinase TTK (Homo sapiens) (UniProt P33981). To be noted: Compound concentration 1000.0 nM.
Data set [7] concerns the target Adenosine receptor A1 (Homo sapiens) (UniProt P30542). Kind of data set: A1 CEREP ligand profiling. To be noted: Compound concentration 10.0 uM.
Data set [8] concerns the target Mitogen-activated protein kinase 14 (Homo sapiens) (UniProt Q16539). As to conditions: Compound concentration 1000.0 nM; call rule not given here.
The target of data set [9] is 5-hydroxytryptamine receptor 5A (Homo sapiens) (UniProt P47898). Briefly: 5-HT5A (h) CEREP ligand profiling. As to conditions: Compound concentration 10.0 uM.
The target of data set [10] is Serine/threonine-protein kinase PLK1 (Homo sapiens) (UniProt P53350). As to conditions: Compound concentration 1000.0 nM.
The target of data set [11] is Histamine H1 receptor (Homo sapiens) (UniProt P35367). Kind of data set: H1 (h) CEREP ligand profiling. As to conditions: Compound concentration 10.0 uM.
The target of data set [12] is T1, Muscarinic acetylcholine receptor M1 (Homo sapiens) (UniProt P11229).
T1 sequence (whole entry): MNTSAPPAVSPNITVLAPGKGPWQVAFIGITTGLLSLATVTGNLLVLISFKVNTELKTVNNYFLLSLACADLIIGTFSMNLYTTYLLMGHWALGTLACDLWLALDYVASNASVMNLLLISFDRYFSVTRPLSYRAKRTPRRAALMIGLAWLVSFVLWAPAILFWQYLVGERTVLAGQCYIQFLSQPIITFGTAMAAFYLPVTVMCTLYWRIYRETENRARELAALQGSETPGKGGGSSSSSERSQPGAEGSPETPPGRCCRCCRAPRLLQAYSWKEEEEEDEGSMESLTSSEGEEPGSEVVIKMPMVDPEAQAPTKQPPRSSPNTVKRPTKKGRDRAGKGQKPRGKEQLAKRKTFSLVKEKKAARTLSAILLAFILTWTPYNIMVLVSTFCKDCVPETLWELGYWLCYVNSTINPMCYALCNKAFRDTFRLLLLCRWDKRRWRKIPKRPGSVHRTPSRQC
As to conditions: Compound concentration 10.0 uM.

Data set [13] addresses Beta-1 adrenergic receptor (Homo sapiens) (UniProt P08588). Kind of data set: beta1 (h) CEREP ligand profiling. As to conditions: Compound concentration 10.0 uM.
Data set [14] has as its target P2X receptor (Rattus norvegicus) (UniProt P51579+P49653+P51578+Q64663+P47824+P51577+P49654). Kind of data set: P2X CEREP ligand profiling. It is filed as protein assay. To be noted: Compound concentration 10.0 uM.
The nature of data set [15]: GABA CEREP ligand profiling. To be noted: Compound concentration 10.0 uM.
In data set [16] the target is T2, Muscarinic acetylcholine receptor M2 (Homo sapiens) (UniProt P08172).
T2 sequence (whole entry): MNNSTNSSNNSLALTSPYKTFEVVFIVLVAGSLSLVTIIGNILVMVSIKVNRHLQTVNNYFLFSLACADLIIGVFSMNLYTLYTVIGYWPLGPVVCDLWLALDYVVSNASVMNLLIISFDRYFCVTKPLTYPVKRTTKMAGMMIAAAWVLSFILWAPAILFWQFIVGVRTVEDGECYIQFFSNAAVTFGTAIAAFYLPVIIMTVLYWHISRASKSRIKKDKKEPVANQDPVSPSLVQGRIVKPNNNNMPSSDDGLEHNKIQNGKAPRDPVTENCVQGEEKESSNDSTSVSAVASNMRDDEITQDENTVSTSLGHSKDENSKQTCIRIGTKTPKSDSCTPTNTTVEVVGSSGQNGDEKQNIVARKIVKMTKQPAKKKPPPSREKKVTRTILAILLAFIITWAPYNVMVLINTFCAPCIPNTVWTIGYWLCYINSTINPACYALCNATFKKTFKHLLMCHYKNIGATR
Kind of data set: M2 (h) CEREP ligand profiling. To be noted: Compound concentration 10.0 uM.

The target in data set [17] is Neuropeptide Y receptor type 1 (Homo sapiens) (UniProt P25929). Briefly: Y1 (h) CEREP ligand profiling. As to conditions: Compound concentration 10.0 uM.
Data set [18] addresses B2 bradykinin receptor (Homo sapiens) (UniProt P30411). Kind of data set: B2 (h) CEREP ligand profiling. As to conditions: Compound concentration 10.0 uM.
For data set [19], the target named is Alpha-2A adrenergic receptor (Homo sapiens) (UniProt P08913). As to conditions: Compound concentration 10.0 uM.
In data set [20] the target is Myosin-IIIb (Homo sapiens) (UniProt Q8WXR4). As to conditions: Compound concentration 1000.0 nM.
Data set [21] deals with Vasopressin V1a receptor (Homo sapiens) (UniProt P37288). Briefly: V1a (h) CEREP ligand profiling. To be noted: Compound concentration 10.0 uM.
Data set [22] concerns the target Platelet-derived growth factor receptor beta (Homo sapiens) (UniProt P09619). To be noted: Compound concentration 1000.0 nM.
Data set [23] addresses Calcium-activated potassium channel (Homo sapiens) (UniProt Q92952+Q9UGI6+Q12791+O15554+Q9H2S1+A8MYU2). Kind of data set: SK+ channel CEREP ligand profiling. It counts as protein assay. As to conditions: Compound concentration 10.0 uM.
The target of data set [24] is Adrenergic receptor alpha-1 (Homo sapiens) (UniProt P35348+P25100+P35368). Kind of data set: alpha1 CEREP ligand profiling. As to conditions: Compound concentration 10.0 uM. It counts as protein assay.
Data set [25] has as its target Ephrin type-A receptor 6 (Homo sapiens) (UniProt Q9UF33). To be noted: Compound concentration 1000.0 nM.
The target in data set [26] is Serine/threonine-protein kinase D3 (Homo sapiens) (UniProt O94806). As to conditions: Compound concentration 1000.0 nM.
Data set [27] deals with Rho-associated protein kinase 2 (Homo sapiens) (UniProt O75116). As to conditions: Compound concentration 1000.0 nM.
Data set [28] addresses Misshapen-like kinase 1 (Homo sapiens) (UniProt Q8N4C8). To be noted: Compound concentration 1000.0 nM.
The subject of data set [29] is Tyrosine-protein kinase ABL1 (Homo sapiens), P00519 [M351T]. As to conditions: Compound concentration 1000.0 nM.
The target in data set [30] is Calcium/calmodulin-dependent protein kinase kinase 2 (Homo sapiens) (UniProt Q96RR4). To be noted: Compound concentration 1000.0 nM.
The target of data set [31] is Casein kinase I isoform gamma-3 (Homo sapiens) (UniProt Q9Y6M4). As to conditions: Compound concentration 1000.0 nM.
Data set [32] deals with Calcium/calmodulin-dependent protein kinase kinase 1 (Homo sapiens) (UniProt Q8N5S9). To be noted: Compound concentration 1000.0 nM.
Data set [33] addresses Beta-adrenergic receptor kinase 1 (Homo sapiens) (UniProt P25098). To be noted: Compound concentration 1000.0 nM.

Molecules are shown by their SMILES.

Sequence of Mitogen-activated protein kinase 14 (Homo sapiens) (Q16539 whole entry): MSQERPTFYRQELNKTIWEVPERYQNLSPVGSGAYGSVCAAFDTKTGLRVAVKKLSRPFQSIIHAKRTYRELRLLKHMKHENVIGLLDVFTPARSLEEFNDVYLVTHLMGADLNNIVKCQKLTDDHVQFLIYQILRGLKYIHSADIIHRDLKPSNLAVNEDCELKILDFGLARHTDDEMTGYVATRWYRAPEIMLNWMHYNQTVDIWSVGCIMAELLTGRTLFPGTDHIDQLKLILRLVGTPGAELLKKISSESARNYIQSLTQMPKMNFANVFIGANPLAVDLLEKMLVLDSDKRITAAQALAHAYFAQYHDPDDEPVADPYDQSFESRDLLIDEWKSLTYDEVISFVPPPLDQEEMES
Sequence of SRSF protein kinase 2 (Homo sapiens) (P78362 whole entry, looked up): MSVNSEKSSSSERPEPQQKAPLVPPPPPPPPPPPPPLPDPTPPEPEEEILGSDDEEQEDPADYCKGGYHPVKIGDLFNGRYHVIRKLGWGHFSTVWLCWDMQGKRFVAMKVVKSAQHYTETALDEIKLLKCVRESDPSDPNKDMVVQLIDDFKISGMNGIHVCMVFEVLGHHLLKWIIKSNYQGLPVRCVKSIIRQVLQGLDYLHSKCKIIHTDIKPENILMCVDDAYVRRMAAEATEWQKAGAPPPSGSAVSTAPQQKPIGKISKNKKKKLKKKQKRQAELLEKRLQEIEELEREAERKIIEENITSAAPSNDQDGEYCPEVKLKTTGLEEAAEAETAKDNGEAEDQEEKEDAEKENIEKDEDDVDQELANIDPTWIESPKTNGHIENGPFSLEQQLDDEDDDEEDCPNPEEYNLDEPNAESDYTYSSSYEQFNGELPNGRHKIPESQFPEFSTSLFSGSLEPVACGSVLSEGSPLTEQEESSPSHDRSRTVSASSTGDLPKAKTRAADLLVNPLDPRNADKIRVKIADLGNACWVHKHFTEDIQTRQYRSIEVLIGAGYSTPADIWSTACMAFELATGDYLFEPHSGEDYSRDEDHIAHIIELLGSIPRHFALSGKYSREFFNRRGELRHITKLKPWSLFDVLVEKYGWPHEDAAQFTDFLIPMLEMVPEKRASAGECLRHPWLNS
Sequence of Alpha-2A adrenergic receptor (Homo sapiens) (P08913 whole entry): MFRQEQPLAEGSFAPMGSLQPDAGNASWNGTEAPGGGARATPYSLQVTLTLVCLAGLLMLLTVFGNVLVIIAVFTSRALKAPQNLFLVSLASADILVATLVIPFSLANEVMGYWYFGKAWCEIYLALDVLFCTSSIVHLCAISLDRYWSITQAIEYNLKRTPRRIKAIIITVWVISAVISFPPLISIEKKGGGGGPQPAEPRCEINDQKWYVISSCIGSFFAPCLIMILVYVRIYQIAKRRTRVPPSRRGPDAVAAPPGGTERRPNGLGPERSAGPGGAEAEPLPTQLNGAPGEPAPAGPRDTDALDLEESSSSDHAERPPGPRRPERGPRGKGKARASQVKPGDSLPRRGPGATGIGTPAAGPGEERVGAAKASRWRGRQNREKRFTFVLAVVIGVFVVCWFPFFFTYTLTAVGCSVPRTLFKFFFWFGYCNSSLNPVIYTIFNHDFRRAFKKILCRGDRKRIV
Sequence of Myosin-IIIb (Homo sapiens) (Q8WXR4 whole entry): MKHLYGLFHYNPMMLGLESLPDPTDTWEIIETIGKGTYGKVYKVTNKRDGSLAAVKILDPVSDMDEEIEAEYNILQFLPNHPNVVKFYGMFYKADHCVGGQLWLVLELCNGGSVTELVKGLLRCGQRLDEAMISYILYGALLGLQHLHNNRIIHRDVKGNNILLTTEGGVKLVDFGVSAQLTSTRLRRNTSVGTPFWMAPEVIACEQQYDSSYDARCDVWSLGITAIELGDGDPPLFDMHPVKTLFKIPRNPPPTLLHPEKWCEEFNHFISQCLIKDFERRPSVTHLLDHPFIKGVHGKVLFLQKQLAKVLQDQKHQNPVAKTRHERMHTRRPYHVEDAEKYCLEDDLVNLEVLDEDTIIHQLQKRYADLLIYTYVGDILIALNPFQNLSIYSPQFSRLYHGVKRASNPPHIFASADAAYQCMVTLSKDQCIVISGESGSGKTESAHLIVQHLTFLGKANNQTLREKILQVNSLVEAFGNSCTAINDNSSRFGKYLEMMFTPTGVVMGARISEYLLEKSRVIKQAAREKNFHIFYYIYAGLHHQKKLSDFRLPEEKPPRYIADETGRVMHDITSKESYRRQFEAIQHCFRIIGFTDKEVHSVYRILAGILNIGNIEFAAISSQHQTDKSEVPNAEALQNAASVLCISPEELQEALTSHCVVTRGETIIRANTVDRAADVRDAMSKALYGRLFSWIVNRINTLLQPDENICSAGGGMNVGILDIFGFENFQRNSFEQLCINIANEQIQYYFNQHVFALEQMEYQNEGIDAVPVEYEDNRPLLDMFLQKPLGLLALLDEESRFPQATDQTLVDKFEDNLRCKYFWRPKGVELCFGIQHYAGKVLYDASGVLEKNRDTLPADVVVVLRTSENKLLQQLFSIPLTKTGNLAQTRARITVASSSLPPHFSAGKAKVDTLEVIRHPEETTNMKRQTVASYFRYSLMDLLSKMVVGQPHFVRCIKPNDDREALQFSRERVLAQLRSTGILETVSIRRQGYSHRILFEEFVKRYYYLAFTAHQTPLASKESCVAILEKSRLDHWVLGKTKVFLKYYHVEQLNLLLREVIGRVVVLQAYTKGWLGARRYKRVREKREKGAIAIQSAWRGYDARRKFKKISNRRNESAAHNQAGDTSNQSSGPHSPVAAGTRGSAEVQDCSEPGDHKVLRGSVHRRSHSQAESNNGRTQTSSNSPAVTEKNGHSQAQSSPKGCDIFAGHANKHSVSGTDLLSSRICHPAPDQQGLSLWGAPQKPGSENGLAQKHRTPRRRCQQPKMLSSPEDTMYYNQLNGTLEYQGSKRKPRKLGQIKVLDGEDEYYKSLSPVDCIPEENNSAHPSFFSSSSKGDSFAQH
Sequence of Serine/threonine-protein kinase PLK1 (Homo sapiens) (P53350 whole entry): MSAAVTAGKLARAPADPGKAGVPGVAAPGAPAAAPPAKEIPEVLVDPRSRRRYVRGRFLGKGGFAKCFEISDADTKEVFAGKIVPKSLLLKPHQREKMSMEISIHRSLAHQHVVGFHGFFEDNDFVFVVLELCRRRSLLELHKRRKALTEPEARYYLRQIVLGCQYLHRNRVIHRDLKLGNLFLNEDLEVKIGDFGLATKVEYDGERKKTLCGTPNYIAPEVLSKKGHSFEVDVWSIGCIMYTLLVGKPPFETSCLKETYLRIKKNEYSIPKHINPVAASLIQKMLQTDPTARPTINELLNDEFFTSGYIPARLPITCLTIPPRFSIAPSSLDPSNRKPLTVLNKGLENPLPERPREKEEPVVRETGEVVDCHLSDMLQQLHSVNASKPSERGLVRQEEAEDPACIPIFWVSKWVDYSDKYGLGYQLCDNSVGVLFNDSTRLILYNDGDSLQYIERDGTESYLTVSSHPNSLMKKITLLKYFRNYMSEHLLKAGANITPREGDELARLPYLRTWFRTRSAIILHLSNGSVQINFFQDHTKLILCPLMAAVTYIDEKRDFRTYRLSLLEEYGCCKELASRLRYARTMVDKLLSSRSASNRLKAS
Sequence of Ephrin type-A receptor 6 (Homo sapiens) (Q9UF33 whole entry): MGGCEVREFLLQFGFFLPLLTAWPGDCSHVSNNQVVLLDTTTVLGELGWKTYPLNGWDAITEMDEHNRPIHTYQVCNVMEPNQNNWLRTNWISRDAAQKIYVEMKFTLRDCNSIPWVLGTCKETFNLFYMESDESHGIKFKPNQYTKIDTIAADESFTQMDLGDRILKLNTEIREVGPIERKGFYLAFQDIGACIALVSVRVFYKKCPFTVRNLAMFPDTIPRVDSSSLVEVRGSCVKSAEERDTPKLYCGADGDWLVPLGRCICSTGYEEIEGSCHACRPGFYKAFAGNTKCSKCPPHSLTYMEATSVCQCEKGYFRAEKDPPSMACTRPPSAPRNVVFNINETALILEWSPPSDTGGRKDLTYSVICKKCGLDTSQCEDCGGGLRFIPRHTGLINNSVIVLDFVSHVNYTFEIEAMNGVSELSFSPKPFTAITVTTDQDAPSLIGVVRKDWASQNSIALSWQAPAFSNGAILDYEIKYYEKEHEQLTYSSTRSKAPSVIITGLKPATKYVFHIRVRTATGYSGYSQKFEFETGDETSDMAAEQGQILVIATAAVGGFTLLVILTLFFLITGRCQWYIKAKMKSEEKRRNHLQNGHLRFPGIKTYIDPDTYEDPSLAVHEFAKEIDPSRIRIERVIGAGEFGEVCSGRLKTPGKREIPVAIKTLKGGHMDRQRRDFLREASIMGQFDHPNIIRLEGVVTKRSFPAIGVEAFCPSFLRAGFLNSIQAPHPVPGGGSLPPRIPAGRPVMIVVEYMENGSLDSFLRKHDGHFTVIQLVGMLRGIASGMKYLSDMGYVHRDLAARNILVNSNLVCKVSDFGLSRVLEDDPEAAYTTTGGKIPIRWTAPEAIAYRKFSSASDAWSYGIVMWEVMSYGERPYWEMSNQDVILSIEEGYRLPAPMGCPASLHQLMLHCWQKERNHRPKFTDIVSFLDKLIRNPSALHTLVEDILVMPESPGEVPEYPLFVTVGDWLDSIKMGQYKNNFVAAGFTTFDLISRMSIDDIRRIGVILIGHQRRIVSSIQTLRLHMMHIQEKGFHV
Sequence of Vasopressin V1a receptor (Homo sapiens) (P37288 whole entry, looked up): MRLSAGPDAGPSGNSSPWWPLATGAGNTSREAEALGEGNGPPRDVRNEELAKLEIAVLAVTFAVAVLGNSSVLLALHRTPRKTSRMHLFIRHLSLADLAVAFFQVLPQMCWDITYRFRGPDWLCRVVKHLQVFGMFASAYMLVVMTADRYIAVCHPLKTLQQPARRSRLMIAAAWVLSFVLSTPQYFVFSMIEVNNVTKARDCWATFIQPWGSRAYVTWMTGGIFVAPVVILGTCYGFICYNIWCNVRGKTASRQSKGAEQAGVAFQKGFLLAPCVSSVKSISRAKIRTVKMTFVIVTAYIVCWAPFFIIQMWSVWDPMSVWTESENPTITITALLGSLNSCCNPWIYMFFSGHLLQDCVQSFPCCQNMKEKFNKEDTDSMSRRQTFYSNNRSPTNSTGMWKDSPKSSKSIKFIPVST

On to `CCC(=N\O)/C(C)=C/c1ccc(F)cc1` [A-079], for which the residual activity in [1] was 77%; in data set [2], 75%; in data set [6] it was 96%; in data set [8], 100%; in data set [10] it was 93%; in data set [20] it was 100%. Also, the residual activity was 100% in [22] and 67% in data set [25]. Besides, the inhibition is 3% in [3]; 0% in data set [4]; 8% in [7]; 4% in [9]; 4% in data set [11]; 15.2% in data set [12]. Moreover, the inhibition in data set [13] was -2%; in data set [14], -2%; in data set [15], -3%; in data set [16], 13%; in [17] it was 0%; in data set [18] it was 2%. The inhibition in [19] is 5.31%; in [21], -3%; in data set [23], -5%; in data set [24] it was 6%. Moreover, in data set [5], the inhibition at 10 µM is 17% (not active).

As to `CCC(=N\O)/C(C)=C/c1ccc(F)c(C)c1` [A-226], the residual activity in data set [1] was 100%; in data set [2] it was 97%; in [6] it was 93%; in data set [26], 100%; in [27], 100%; in data set [8] it was 100%. Also, the residual activity in data set [10] was 82%; in [28], 92%; in data set [29] it was 100%; in data set [30], 88%; in [31], 100%; in data set [32], 100%. The residual activity in data set [20] is 67%; in data set [33], 100%; in data set [22], 86%; in data set [25], 100%. Moreover, the inhibition is -2.46% in data set [12] and 2.82% in [19].

The inhibition is the drop in the measured response relative to a control, in per cent.
